Tests used:
[1] = system: yeast (e.g., Saccharomyces); settings: at comparable concentrations; cited from earlier work
[2] = system: gram-positive and gram-negative bacteria (e.g., lactobacillus); settings: cited from earlier work
[3] = system: cell inoculum (shake flask culture); experiment: Shake flask culture with crude COFA with or without BHT, YSI glucose measurements; assay type: cell-based; settings: BHT 0 wt % (control) to 5 wt % in crude COFA; 50% v/v COFA; 40 g/L glucose synthetic medium; 30° C., 260 rpm
Description: In an experimental example, a cell inoculum originated from a 72 hour seed flask with a 30 g/L synthetic medium. The culture was inoculated into 40 g/L glucose in synthetic medium. […] The flasks were incubated in a thirty degree Celsius (30° C.), 260 revolutions per minute (rpm) shaker. One to one point five milliliter (1-1.5) mL samples were taken at points in time.

For Cc1cc(C(C)(C)C)c(O)c(C(C)(C)C)c1 [BHT, butylated hydroxytoluene], the effect on yeast [1] is listed as “does not affect yeast”, the “antimicrobial activity to gram-positive and gram-negative bacteria” value [2] is listed as “exhibits antimicrobial activity” and the glucose consumption [3] is listed as “No difference in glucose consumption was observed”.
